{"source": "patent US12725435B2", "about": "“FIM-CNN for detection of viable cells and/or particulate impurities” (Coriolis Pharma Research GmbH, priority 2021, dated 2026)", "key": {"in vitro": {"assay": "in vitro", "details": "human", "description": "(§1) Generation of particle images for population discrimination. The CNN was retrained on manually labelled images (4,000-4,500) of each of the three populations: viable cells, necrotic cells and debris particles. […] For selection of necrotic cells, two separate methods were used to induce cell necrosis. […] In order to further define image populations of viable and necrotic cells for the network fine-tuning, morphological parameters, such as aspect ratio, circle fit, convexity, sigma intensity and symmetry, of the two populations were used. Only particles (cells) of morphological parameter values falling between the 10th and 90th percentile of the manually selected population as viable and necrotic cells were taken for input to the training of the model. Images of debris particles were manually selected from measured suspensions of cells submitted to vortexing for approximately 2 min or two freeze-thaw cycles (−140° C.-37° C.).\n(§2) Cell apoptosis and necrosis were determined by imaging flow cytometry after labelling of the cells with FITC and PI. Sample preparation was carried out according to the Dead Cell Apoptosis Kit instructions. After incubation for 15 min in the dark at room temperature samples were kept on wet ice until analysis. After adjusting the excitation power of the FlowSight imaging flow cytometer to 4 mW, the same instrument settings as described in for the calcein-AM assay above was used. Brightfield as well as fluorescence images in channels 02 (532/55 nm) for FITC and channel 4 (610/30 nm) for PI were recorded. Appropriate morphological filters based on mean intensity, area, aspect ratio and modulation from channel 09 were applied to discriminate between single cells and cell aggregates or debris particles. Once single cells were selected based on brightfield images, mean intensity values from channel 02 (fluorescence) were plotted against the particle area (erode mask) where the positively stained cells were classified as viable."}, "Jurkat cells [1]": {"tested_on": "Jurkat cells", "assay": "in vitro", "description": "as §1, §2"}, "[2]": {"assay": "calcein-AM assay of cell viability (imaging flow cytometry)", "type": "cell-based", "details": "human, Jurkat cells; irrespective of DMSO content (2.5%, 5%, 10% v/v) and time point (T0, freeze-thaw, control)", "description": "Freeze-thaw stress. DMSO, cooled on wet ice, was slowly added to cell suspensions (placed on wet ice) to reach a target concentration 1%, 2.5%, 5% and 10% (v/v) at a cell concentration of 1×10^6 cells/ml. Further, five 1-ml aliquots were prepared in 1.8-ml Nalgene cryovials, which were submitted to freezing at −18° C. for 3 hours. This amount of time was sufficient for complete freezing of the aliquots. Prior to analysis, the samples were thawed for 2 min at 37° C., pooled and washed with fresh RPMI medium. Control samples were stored at 20° C. for 3 hours and were otherwise treated identically as the freeze-thawed samples.\nImaging flow cytometry. To assess cell viability based on cell metabolism, imaging flow cytometry was used in combination with the membrane-permeable dye calcein-AM (calcein-AM assay), at a final concentration of 6.3 nM in the sample to be analyzed. […] Subsequently, samples were analyzed by using an Amnis FlowSight imaging flow cytometer (Luminex, Seattle, USA) and data was analyzed using IDEAS 6.2.183 (Luminex, Seattle, USA) image analysis software. […] The side scatter laser was set to 10 mW and the 488 nm fluorescence excitation laser was set to 12 mW. Images of the calcein-AM stained cells were recorded in channel 02 (532/55 nm). […]"}, "Jurkat cells [3]": {"tested_on": "Jurkat cells", "assay": "FIM-CNN (FlowCam) cell counts and viability after forced degradation", "type": "cell-based", "description": "Freeze-thaw stress. […] Further, five 1-ml aliquots were prepared in 1.8-ml Nalgene cryovials, which were submitted to freezing at −18° C. for 3 hours. This amount of time was sufficient for complete freezing of the aliquots. Prior to analysis, the samples were thawed for 2 min at 37° C., pooled and washed with fresh RPMI medium. Control samples were stored at 20° C. for 3 hours and were otherwise treated identically as the freeze-thawed samples. Shaking stress. […] The cryovials were submitted to shaking by constant horizontal agitation at 185 rpm at 25° C. by using an IC 4000 shaker (IKA, Germany). Analysis of cell suspensions of pooled cell aliquots was performed following 3 hours of shaking. Control samples were stored statically and protected from light at 25° C. in cryovials, and subsequently pooled. Flow imaging microscopy (FlowCam, FIM). Cells (viable and necrotic) and debris particles were quantified by using a FlowCam 8100 (Fluid Imaging Technologies, Scarborough, USA) equipped with a 50-μflow cell. […] In total, a sample volume of 140 μL was measured with an efficiency of approximately 63% (i.e., the imaged sample volume was ca. 87 μL). Particles imaged within the flow cell were detected with intensity thresholds of 12 for light and dark pixels. […] Collected images were not sorted by using any morphological filters and samples were measured in triplicate, unless otherwise stated. Image analysis using convolutional neural networks. Particle images captured by using FlowCam were analyzed by using convolutional neural networks (CNN). […] Briefly, the VGG-19 network using rectified linear unit activation functions, punctuated with max-pooling and dropout layers, was pre-trained on the ImageNet dataset (http://image-netorg). The re-training of the network was performed with the first ten layers frozen in order to save computation time and improve accuracy of the model by preserving its pre-learned feature recognition capabilities. For fine-tuning the dataset was split into an 8:1:1 ratio for training, validation and testing, respectively. […]"}, "Jurkat cells [4]": {"tested_on": "Jurkat cells", "assay": "Annexin V-FITC / PI fluorescence-based flow cytometry assay (apoptosis, necrosis)", "description": "as §2\nFor selection of necrotic cells, two separate methods were used to induce cell necrosis. […] Images of debris particles were manually selected from measured suspensions of cells submitted to vortexing for approximately 2 min or two freeze-thaw cycles (−140° C.-37° C.)."}, "[5]": {"details": "cell suspensions frozen with 2.5% (v/v) DMSO"}, "[6]": {"details": "staurosporin 1 μM to 500.000 cells/mL, Annexin V-FITC & PI double staining"}}}
{"smiles": "CCO", "note": "[ethanol, reference compound]", "values": [{"measurement": "viability at 90 min, 10 % (v/v)", "setting": "in vitro", "result": 12.8, "unit": "%"}]}
{"smiles": "C[S+](C)[O-]", "note": "[DMSO, dimethyl sulfoxide]", "values": [{"measurement": "toxic effects of DMSO (PI assay)", "setting": "Jurkat cells [1]", "result": "loss of cell viability"}, {"measurement": "drop in cell viability (PI assay)", "setting": "Jurkat cells [1]; 5% and 10% (v/v) DMSO, freeze-thawed and control samples compared to T0", "result": "ca. 10%"}, {"measurement": "losses in viability (PI assay)", "setting": "Jurkat cells [1]; [5]", "result": "ca. 20%"}, {"measurement": "viability", "setting": "[2]", "result": "85 to 90", "unit": "%"}, {"measurement": "reduction of cell counts", "setting": "Jurkat cells [3]; 0% and 1% (v/v) DMSO, one freeze-thaw cycle (−18° C. 3 hours, thawing 2 min at 37° C.)", "result": "> 98", "unit": "%"}, {"measurement": "losses in viability (FIM-CNN assay)", "setting": "Jurkat cells [3]; [5]", "result": "ca. 20%"}, {"measurement": "toxic effects of DMSO (FIM)", "setting": "Jurkat cells [3]; exposure of 3 hours at RT, 10% (v/v)", "result": "loss of cell viability"}, {"measurement": "increase in apoptotic cell content", "setting": "Jurkat cells [4]; human, 3 h", "result": "~2", "unit": "fold"}]}
{"smiles": "CN[C@@H]1C[C@H]2O[C@@](C)([C@@H]1OC)n1c3ccccc3c3c4c(c5c6ccccc6n2c5c31)C(=O)NC4", "note": "[staurosporin]", "values": [{"measurement": "necrotic cells", "setting": "Jurkat cells [4]; [6]", "result": "around 6%"}, {"measurement": "viable cells", "setting": "Jurkat cells [4]; [6]", "result": "~ 2%"}]}
